{"source": "patent US20090318426A1", "about": "“USE OF FLUMAZENIL IN THE MANUFACTURE OF A MEDICAMENT FOR THE TREATMENT OF DEPRESSIVE DISORDERS” (priority 2006, published 2009)", "key": {"[1]": {"tested_on": "patients presenting a depressive disorder", "test": "Clinical observation of mood, attention and sleep after administration of flumazenil", "assay_type": "in vivo, human", "conditions": "for changes in mood: three patients", "experimental": "(§1) Three patients presenting a depressive disorder were subjected to treatment.\n(§2) Flumazenil was administered in doses of 0.2 mg every 3 minutes (up to a total of 2 mg/day). […] Before starting the first administration of flumazenil, a test consisting of the administration of a bolus of 0.1 mg of flumazenil was conducted to evaluate the reaction of the subject."}, "[2]": {"tested_on": "patients presenting a depressive disorder", "conditions": "in vivo", "experimental": "as §1\nDuring the assessment prior to the admission, a thorough psychopathological and medical evaluation was conducted first thing in the morning (9:00 AM). The medical examination included an electrocardiogram and a complete blood analysis, in which the different cell series (red blood cells, white blood cells and platelets) and the biochemical profile (glucose, creatinine, urea, cholesterol and the fractions thereof, triglycerides, alkaline phosphatase, GOT, GPT, GGT, LDH, total proteins, etc.) were studied.\nFlumazenil was administered in doses of 0.2 mg every 3 minutes (up to a total of 2 mg/day). This quantity per dose was established to reduce as much as possible undesirable side effects related to possible interactions with other drugs or psychopathologies. Before starting the first administration of flumazenil, a test consisting of the administration of a bolus of 0.1 mg of flumazenil was conducted to evaluate the reaction of the subject."}, "[3]": {"tested_on": "patients presenting a depressive disorder", "test": "SCL-90-R (Symptom Checklist 90 Revised) scale in patients treated with flumazenil", "assay_type": "in vivo, human", "conditions": "for SCL-90-R at the end: after third administration of flumazenil 2 mg/day, 0.2 mg every 3 minutes", "experimental": "as §1, §2"}}, "data": [{"smiles": "CCOC(=O)c1ncn2c1CN(C)C(=O)c1cc(F)ccc1-2", "note": "[Flumazenil, 8-fluoro-5,6-dihydro-5-methyl-6-oxo-4H-imidazol[1,5-α][1,4]benzodiazepine-3-carboxylic acid ethyl ester]", "values": [{"measurement": "mood of the treated patients", "setting": "[1]; 2 mg/day divided into doses of 0.2 mg every 3 minutes", "value": "substantially improves the mood"}, {"measurement": "attention, concentration and other superior faculties", "setting": "[1]; after third administration", "value": "improvement of attention, concentration and other superior faculties being more evident"}, {"measurement": "existing sleep disorders", "setting": "[1]; after third administration", "value": "completely corrected"}, {"measurement": "sleep (early waking)", "setting": "[1]; patient P01, first night after first administration", "value": "did not occur on this first night"}, {"measurement": "sleep (difficulty in falling asleep)", "setting": "[1]; patient P03, first night after first administration", "value": "fell asleep early in the night"}, {"measurement": "changes in mood", "setting": "[1]; after first administration, with respect to time of admission", "value": "feeling of wellbeing and more calmness"}, {"measurement": "changes in mood", "setting": "[1]; after second administration", "value": "better mood"}, {"measurement": "time until induced improvement reaches a clinical level", "setting": "[1]; treatment of depressive disorders", "value": "less than one week"}, {"measurement": "blood pressure values", "setting": "[2]", "value": "remained within the range of normal"}, {"measurement": "cardiovascular values", "setting": "[2]", "value": "remained within normal parameters"}, {"measurement": "cardiovascular values (heart rate and blood pressure)", "setting": "[2]", "value": "did not undergo significant changes"}, {"measurement": "heart rate values", "setting": "[2]", "value": "did not undergo any significant increases"}, {"measurement": "secondary symptoms", "setting": "[2]", "value": "Secondary symptoms did not occur"}, {"measurement": "symptoms associated to administration", "setting": "[2]", "value": "no symptoms associated to such administration"}, {"measurement": "SCL-90-R depression values", "setting": "[3]; after third administration, versus start", "value": "reduction in the depression values"}, {"measurement": "SCL-90-R at the end", "setting": "[3]; patient P01 (associated cocaine consumption), SCL-90-R at the start 78", "value": 0}, {"measurement": "SCL-90-R at the end", "setting": "[3]; patient P02 (associated cocaine consumption), SCL-90-R at the start 48", "value": 30}, {"measurement": "SCL-90-R at the end", "setting": "[3]; patient P03 (associated alcohol consumption), SCL-90-R at the start 92", "value": 25}]}]}
